Test results from PMC10211317, “Identification of ARUK2002821 as an isoform-selective PI5P4Kα inhibitor” (RSC Medicinal Chemistry, 2023).
In brackets after ≈: the same amount, converted by molar mass.

How the values were obtained:
PIK3CA = target: T1, PIK3CA (Homo sapiens, UniProt P42336); test: KINOMEscan lipid kinase panel (DiscoverX); format: binding; set-up: dose or concentration left out as unconfirmed
T1 construct: purchased DiscoverX (Eurofins Discovery)
Method: (§1) generated using KINOMEscan™ technologya at DiscoverX. […]
(§2) a Data were generated at Eurofins Discovery using DiscoverX KINOMEscanTM technology. Streptavidin-coated magnetic beads were treated with biotinylated small molecule ligands for 30 minutes at room temperature to generate affinity resins for kinase assays. The liganded beads were blocked with excess biotin and washed with blocking buffer (SeaBlock (Pierce), 1% BSA, 0.05% Tween 20, 1 mM DTT) to remove unbound ligand and to reduce non-specific binding. Binding reactions were assembled by combining kinases, liganded affinity beads, and test compounds in 1x binding buffer (20% SeaBlock, 0.17x PBS, 0.05% Tween 20, 6 mM DTT). Test […]
(§3) The compounds were then diluted directly into the assays such that the final concentration of DMSO was 0.9%. All reactions performed in polypropylene 384-well plate. Each was a final volume of 0.02 ml. The assay plates were incubated at room temperature with shaking for […]
(§4) room temperature with shaking for 30 minutes. The kinase concentration in the eluates was measured by qPCR. […]

PIKFYVE = target: T2, PIKFYVE (Homo sapiens, UniProt Q9Y2I7); test: KINOMEscan lipid kinase panel (DiscoverX); format: binding; set-up: dose or concentration left out as unconfirmed
T2 construct: purchased DiscoverX (Eurofins Discovery)
Method: as §1, §2, §3, §4

PIK3CA(H1047Y) = target: T3, PIK3CA(H1047Y) (Homo sapiens, UniProt P42336, H1047Y); test: KINOMEscan lipid kinase panel (DiscoverX); format: binding; set-up: dose or concentration left out as unconfirmed
T3 construct: purchased DiscoverX (Eurofins Discovery)
Method: as §1, §2, §3, §4

PIK4CB = PIK4CB (Homo sapiens, UniProt Q9UBF8); test: KINOMEscan lipid kinase panel (DiscoverX); format: binding; set-up: dose or concentration left out as unconfirmed
Method: as §1, §2, §3, §4

VPS34 = target: T4, VPS34 (Homo sapiens, UniProt Q8NEB9); test: KINOMEscan lipid kinase panel (DiscoverX); format: binding; set-up: dose or concentration left out as unconfirmed
T4 construct: purchased Eurofins Discovery (DiscoverX KINOMEscan)
Method: as §1, §2, §3, §4

PIK3CG = target: T5, PIK3CG (Homo sapiens, UniProt P48736); test: KINOMEscan lipid kinase panel (DiscoverX); format: binding; set-up: dose or concentration left out as unconfirmed
T5 construct: purchased DiscoverX (Eurofins Discovery)
Method: as §1, §2, §3, §4

PIK3CA(E545K) = target: T6, PIK3CA(E545K) (Homo sapiens, UniProt P42336, E545K); test: KINOMEscan lipid kinase panel (DiscoverX); format: binding; set-up: dose or concentration left out as unconfirmed
T6 construct: purchased DiscoverX (Eurofins Discovery)
Method: as §1, §2, §3, §4

PIK3CA(M1043I) = target: T7, PIK3CA(M1043I) (Homo sapiens, UniProt P42336, M1043I); test: KINOMEscan lipid kinase panel (DiscoverX); format: binding; set-up: dose or concentration left out as unconfirmed
T7 construct: purchased DiscoverX (Eurofins Discovery)
Method: as §1, §2, §3, §4

PIK3CA(Q546K) = target: T8, PIK3CA(Q546K) (Homo sapiens, UniProt P42336, Q546K); test: KINOMEscan lipid kinase panel (DiscoverX); format: binding; set-up: dose or concentration left out as unconfirmed
T8 construct: purchased DiscoverX (Eurofins Discovery)
Method: as §1, §2, §3, §4

PIK3CD = target: T9, PIK3CD (Homo sapiens, UniProt O00329); test: KINOMEscan lipid kinase panel (DiscoverX); format: binding; set-up: dose or concentration left out as unconfirmed
T9 construct: purchased DiscoverX (Eurofins Discovery)
Method: as §1, §2, §3, §4

PIK3CA(H1047L) = target: T10, PIK3CA(H1047L) (Homo sapiens, UniProt P42336, H1047L); test: KINOMEscan lipid kinase panel (DiscoverX); format: binding; set-up: dose or concentration left out as unconfirmed
T10 construct: purchased DiscoverX (Eurofins Discovery)
Method: as §1, §2, §3, §4

PIP5K1A = target: T11, PIP5K1A (Homo sapiens, UniProt Q99755); test: KINOMEscan lipid kinase panel (DiscoverX); format: binding; set-up: dose or concentration left out as unconfirmed
T11 construct: purchased DiscoverX (Eurofins Discovery)
Method: as §1, §2, §3, §4

PIP5K1C = target: T12, PIP5K1C (Homo sapiens, UniProt O60331); test: KINOMEscan lipid kinase panel (DiscoverX); format: binding; set-up: dose or concentration left out as unconfirmed
T12 construct: purchased Eurofins Discovery (DiscoverX KINOMEscan)
Method: as §1, §2, §3, §4

PIK3CA(E542K) = target: T13, PIK3CA(E542K) (Homo sapiens, UniProt P42336, E542K); test: KINOMEscan lipid kinase panel (DiscoverX); format: binding; set-up: dose or concentration left out as unconfirmed
T13 construct: purchased DiscoverX (Eurofins Discovery)
Method: as §1, §2, §3, §4

PIK3CB = target: T14, PIK3CB (Homo sapiens, UniProt P42338); test: KINOMEscan lipid kinase panel (DiscoverX); format: binding; set-up: dose or concentration left out as unconfirmed
T14 construct: purchased DiscoverX (Eurofins Discovery)
Method: as §1, §2, §3, §4

PIK3C2G = target: T15, PIK3C2G (Homo sapiens, UniProt O75747); test: KINOMEscan lipid kinase panel (DiscoverX); format: binding; set-up: dose or concentration left out as unconfirmed
T15 construct: purchased DiscoverX (Eurofins Discovery)
Method: as §1, §2, §3, §4

PIK3CA(C420R) = target: T16, PIK3CA(C420R) (Homo sapiens, UniProt P42336, C420R); test: KINOMEscan lipid kinase panel (DiscoverX); format: binding; set-up: dose or concentration left out as unconfirmed
T16 construct: purchased DiscoverX (Eurofins Discovery)
Method: as §1, §2, §3, §4

PIP5K2C (PI5P4KC) = target: T17, PIP5K2C (PI5P4KC) (Homo sapiens, UniProt Q8TBX8); test: KINOMEscan lipid kinase panel (DiscoverX); format: binding; set-up: dose or concentration left out as unconfirmed
T17 construct: purchased Eurofins Discovery (DiscoverX KINOMEscan)
Method: as §1, §2, §3, §4

PIK3CA(E545A) = target: T18, PIK3CA(E545A) (Homo sapiens, UniProt P42336, E545A); test: KINOMEscan lipid kinase panel (DiscoverX); format: binding; set-up: dose or concentration left out as unconfirmed
T18 construct: purchased DiscoverX (Eurofins Discovery)
Method: as §1, §2, §3, §4

PIK3CA(I800L) = target: T19, PIK3CA(I800L) (Homo sapiens, UniProt P42336, I800L); test: KINOMEscan lipid kinase panel (DiscoverX); format: binding; set-up: dose or concentration left out as unconfirmed
T19 construct: purchased DiscoverX (Eurofins Discovery)
Method: as §1, §2, §3, §4

[1] = Turbidimetric aqueous solubility; format: physicochemical; conditions: PBS buffer; pH 7.4 in aqueous buffer
Method: ADMET experimental methods […]
Turbidimetric aqueous solubility: analysis was performed by Cyprotex Discovery. Compound in DMSO at 10 mM was serially diluted to solutions of 0.1, 0.3, 1 and 3 mM in DMSO, then further diluted 1 in 100 in buffer (0.01 M PBS, pH 7.4, 1% DMSO final). 7 replicate wells of each dilution were equilibrated for 2 hours at 37 °C before absorbance is measured at 620 nm. The solubility is estimated from the concentration of test compound that produces an increase in absorbance above vehicle control (1% DMSO in buffer). […]

DAPK1 = DAPK1 (Homo sapiens, UniProt P53355); test: Premier Screen kinase panel (MRC PPU); format: biochemical; conditions: DAPK1 (Entrez DAPK1), read-out: Residual activity (%)
Method: (§5) room temperature with shaking for 30 minutes. The kinase concentration in the eluates was measured by qPCR.
(§6) using ADP-GloTM assay at the MRC PPU International Centre for Kinase Profiling, University of Dundee.
(§7) Conducted by MRC PPU International Centre
(§8) Conducted by MRC PPU International Centre for […]

PAK2 = PAK2 (Homo sapiens, UniProt Q13177); test: Premier Screen kinase panel (MRC PPU); format: biochemical; conditions: PAK2 (Entrez PAK2), read-out: Residual activity (%)
Method: as §5, §6, §7, §8

PRAK = PRAK (Homo sapiens, UniProt Q8IW41); test: Premier Screen kinase panel (MRC PPU); format: biochemical; conditions: PRAK (Entrez MAPKAPK5), read-out: Residual activity (%)
Method: as §5, §6, §7, §8

PDK1 = PDK1 (Homo sapiens, UniProt O15530); test: Premier Screen kinase panel (MRC PPU); format: biochemical; conditions: PDK1 (Entrez PDPK1), read-out: Residual activity (%)
Method: as §5, §6, §7, §8

T5 sequence (P48736 whole entry): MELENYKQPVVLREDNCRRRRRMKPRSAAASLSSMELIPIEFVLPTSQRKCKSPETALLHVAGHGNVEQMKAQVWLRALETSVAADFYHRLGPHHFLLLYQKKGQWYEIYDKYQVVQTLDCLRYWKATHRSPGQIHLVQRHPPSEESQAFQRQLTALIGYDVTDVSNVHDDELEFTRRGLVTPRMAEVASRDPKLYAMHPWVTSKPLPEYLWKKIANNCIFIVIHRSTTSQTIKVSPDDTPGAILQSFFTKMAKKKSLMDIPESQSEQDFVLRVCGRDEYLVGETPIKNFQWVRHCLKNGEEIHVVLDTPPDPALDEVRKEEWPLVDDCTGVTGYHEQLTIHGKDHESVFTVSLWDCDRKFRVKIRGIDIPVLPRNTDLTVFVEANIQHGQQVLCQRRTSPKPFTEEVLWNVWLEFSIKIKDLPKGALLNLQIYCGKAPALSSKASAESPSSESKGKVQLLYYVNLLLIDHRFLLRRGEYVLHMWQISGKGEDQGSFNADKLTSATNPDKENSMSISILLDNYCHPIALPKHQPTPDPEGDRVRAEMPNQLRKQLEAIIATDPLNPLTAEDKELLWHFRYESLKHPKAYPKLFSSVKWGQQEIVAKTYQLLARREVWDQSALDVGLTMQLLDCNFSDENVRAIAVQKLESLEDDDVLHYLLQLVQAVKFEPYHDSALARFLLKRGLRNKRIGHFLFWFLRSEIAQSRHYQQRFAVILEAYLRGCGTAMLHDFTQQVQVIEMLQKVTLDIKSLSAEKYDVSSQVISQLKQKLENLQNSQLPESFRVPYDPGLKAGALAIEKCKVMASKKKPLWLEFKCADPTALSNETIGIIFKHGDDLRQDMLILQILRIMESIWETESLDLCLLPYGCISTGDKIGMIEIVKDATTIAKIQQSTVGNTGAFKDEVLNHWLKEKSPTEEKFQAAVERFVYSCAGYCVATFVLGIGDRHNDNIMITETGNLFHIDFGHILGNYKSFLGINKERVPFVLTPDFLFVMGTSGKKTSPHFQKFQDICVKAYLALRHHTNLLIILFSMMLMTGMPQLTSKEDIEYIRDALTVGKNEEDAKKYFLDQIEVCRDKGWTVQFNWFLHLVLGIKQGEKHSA
Chain of DAPK1 (P53355 whole entry): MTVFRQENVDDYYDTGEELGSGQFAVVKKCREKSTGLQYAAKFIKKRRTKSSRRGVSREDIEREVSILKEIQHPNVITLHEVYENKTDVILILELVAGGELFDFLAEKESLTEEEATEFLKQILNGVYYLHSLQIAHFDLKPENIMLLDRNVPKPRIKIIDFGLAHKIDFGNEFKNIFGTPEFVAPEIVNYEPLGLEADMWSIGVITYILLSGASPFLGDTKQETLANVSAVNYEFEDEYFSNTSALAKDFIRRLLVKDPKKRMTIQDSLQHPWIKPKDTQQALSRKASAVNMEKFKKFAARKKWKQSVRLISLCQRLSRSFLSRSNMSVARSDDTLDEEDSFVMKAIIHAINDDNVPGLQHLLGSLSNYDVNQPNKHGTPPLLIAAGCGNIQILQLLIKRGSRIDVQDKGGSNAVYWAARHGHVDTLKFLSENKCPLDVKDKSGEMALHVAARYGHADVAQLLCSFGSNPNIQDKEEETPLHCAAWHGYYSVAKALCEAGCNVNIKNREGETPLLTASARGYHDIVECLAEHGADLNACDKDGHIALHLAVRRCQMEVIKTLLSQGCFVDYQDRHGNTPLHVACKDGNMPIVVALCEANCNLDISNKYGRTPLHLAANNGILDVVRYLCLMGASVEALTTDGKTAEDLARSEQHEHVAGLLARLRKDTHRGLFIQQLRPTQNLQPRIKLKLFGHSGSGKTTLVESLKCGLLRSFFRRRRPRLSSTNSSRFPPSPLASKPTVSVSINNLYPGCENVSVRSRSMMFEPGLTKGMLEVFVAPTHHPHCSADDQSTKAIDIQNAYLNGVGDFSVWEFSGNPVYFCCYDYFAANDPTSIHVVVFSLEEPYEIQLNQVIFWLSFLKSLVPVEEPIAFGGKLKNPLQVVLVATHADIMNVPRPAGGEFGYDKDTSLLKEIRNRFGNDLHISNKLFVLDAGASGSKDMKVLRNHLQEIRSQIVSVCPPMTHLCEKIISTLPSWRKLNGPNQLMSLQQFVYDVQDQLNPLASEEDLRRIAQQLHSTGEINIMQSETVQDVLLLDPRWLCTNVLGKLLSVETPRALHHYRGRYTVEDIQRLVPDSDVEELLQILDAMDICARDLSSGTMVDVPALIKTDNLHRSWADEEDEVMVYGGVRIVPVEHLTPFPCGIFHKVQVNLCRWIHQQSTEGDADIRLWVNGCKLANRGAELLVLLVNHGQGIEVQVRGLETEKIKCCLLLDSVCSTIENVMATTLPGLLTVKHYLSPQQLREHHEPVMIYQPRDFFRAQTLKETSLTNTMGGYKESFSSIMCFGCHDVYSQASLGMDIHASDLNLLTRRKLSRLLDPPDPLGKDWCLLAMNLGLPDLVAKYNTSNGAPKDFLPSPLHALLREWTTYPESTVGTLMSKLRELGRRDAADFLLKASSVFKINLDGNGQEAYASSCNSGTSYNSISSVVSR
T11 sequence (Q99755 whole entry): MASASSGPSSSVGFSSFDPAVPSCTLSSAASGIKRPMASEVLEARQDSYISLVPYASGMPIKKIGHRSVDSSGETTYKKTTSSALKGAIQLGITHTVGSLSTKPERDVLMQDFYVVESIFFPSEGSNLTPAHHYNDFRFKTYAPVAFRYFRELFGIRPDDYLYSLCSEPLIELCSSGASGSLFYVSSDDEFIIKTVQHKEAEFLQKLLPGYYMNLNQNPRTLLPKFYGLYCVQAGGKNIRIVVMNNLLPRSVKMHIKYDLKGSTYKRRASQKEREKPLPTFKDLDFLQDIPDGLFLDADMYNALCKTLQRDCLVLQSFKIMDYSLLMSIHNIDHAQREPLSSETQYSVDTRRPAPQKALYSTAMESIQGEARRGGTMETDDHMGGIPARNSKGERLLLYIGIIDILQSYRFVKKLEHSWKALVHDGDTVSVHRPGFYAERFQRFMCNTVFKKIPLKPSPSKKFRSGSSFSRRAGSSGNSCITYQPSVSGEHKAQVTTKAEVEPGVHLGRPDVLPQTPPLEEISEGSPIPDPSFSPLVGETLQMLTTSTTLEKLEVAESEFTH
T18 sequence (P42336 whole entry E545A): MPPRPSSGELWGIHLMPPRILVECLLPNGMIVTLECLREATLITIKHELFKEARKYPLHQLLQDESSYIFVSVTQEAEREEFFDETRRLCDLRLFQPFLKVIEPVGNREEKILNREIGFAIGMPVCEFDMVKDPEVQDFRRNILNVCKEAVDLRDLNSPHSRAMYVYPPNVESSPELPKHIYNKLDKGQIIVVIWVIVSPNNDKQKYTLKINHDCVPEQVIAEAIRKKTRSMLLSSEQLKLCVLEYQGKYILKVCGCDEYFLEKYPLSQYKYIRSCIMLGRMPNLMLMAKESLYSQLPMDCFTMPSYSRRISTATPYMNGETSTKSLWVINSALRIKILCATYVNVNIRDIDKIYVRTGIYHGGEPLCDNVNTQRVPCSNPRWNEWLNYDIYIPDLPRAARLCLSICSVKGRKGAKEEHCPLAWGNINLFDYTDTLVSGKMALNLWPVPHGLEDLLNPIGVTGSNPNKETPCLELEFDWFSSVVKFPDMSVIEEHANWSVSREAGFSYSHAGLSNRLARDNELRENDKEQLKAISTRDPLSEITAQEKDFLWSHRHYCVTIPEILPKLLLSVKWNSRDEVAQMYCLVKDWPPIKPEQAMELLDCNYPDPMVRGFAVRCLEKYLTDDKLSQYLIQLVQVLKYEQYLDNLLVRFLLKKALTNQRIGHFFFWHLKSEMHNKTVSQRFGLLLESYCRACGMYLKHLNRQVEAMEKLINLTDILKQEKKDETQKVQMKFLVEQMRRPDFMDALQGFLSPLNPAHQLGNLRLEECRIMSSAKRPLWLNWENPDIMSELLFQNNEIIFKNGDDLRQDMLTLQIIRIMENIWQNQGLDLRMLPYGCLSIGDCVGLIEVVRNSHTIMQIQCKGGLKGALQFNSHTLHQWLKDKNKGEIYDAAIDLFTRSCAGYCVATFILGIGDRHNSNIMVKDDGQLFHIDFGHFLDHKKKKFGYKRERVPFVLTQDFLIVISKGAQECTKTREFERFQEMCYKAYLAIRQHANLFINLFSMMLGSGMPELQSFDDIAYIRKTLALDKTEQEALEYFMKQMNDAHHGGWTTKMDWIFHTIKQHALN
Chain of PRAK (Q8IW41 whole entry): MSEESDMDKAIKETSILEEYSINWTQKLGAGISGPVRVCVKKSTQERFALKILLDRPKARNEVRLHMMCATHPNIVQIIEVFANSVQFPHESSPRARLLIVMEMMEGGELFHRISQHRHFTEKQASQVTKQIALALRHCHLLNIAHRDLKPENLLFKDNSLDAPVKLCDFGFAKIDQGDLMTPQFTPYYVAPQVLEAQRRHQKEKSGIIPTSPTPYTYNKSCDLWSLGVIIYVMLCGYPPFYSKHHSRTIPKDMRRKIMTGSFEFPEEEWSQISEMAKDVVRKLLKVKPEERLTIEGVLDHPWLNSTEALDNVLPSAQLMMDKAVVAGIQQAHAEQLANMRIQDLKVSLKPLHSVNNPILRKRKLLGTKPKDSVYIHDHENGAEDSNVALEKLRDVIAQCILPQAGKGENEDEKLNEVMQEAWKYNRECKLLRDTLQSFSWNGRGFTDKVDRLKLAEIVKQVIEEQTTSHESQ
T17 sequence (Q8TBX8 whole entry): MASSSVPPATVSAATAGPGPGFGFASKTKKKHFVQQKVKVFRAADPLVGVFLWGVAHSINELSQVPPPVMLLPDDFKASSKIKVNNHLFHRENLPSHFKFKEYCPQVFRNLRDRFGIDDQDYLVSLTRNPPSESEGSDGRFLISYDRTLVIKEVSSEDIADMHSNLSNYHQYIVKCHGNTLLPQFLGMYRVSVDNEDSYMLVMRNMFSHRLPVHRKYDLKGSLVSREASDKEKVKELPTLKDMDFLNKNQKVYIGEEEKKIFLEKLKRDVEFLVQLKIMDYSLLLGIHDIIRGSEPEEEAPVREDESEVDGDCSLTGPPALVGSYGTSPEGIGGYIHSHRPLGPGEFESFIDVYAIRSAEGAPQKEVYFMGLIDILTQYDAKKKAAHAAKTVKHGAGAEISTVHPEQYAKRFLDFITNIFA

SMILES: CC1(C)CN(c2ncc(C(=O)Nc3cccc(C(F)(F)F)c3)c(N)n2)C(=O)N1 [compound 7, Imanixil]
- % activity remaining (PIK3CA): 100%
- % activity remaining (PIKFYVE): 100%
- % activity remaining (PIK3CA(H1047Y)): 95%
- % activity remaining (PIK4CB): 98%
- % activity remaining (VPS34): 100%
- % activity remaining (PIK3CG): 100%
- % activity remaining (PIK3CA(E545K)): 100%
- % activity remaining (PIK3CA(M1043I)): 100%
- % activity remaining (PIK3CA(Q546K)): 100%
- % activity remaining (PIK3CD): 100%
- % activity remaining (PIK3CA(H1047L)): 100%
- % activity remaining (PIP5K1A): 99%
- % activity remaining (PIP5K1C): 100%
- % activity remaining (PIK3CA(E542K)): 100%
- % activity remaining (PIK3CB): 100%
- % activity remaining (PIK3C2G): 100%
- % activity remaining (PIK3CA(C420R)): 100%
- % activity remaining (PIP5K2C (PI5P4KC)): 100%
- % activity remaining (PIK3CA(E545A)): 100%
- % activity remaining (PIK3CA(I800L)): 100%

SMILES: COc1ccc(Nc2ncnc3c2ccn3-c2ccc(C)c(C)c2)cc1Cl [compound 36]
- solubility at 2 h [1]: 3 µM (≈ 1.14 µg/mL)
- remaining activity at 1 µM (DAPK1): 118%
- remaining activity at 1 µM (PAK2): 99%
- remaining activity at 1 µM (PRAK): 90%
- remaining activity at 1 µM (PDK1): 133%
